Values quoted from earlier work as cited in patent US20040087564A1, “Delivery composition and method” (priority 2002, published 2004).

C[C@]12CC[C@H]3[C@@H](CCC4=CC(=O)CC[C@@]43C)[C@@H]1CC[C@@H]2O [testosterone]
true testosterone disposition half-life (in rabbits): ~15 min | testosterone clearance (male rabbit, Bourget et al., Steroids 43:225-233 (1984)): 42 L/day/kg
